Data set [1] can be described thus: Apparent permeability across apical to basolateral side in MDCKII-MDR1 cells at 10 uM by LC-MS/MS analysis. In kind it is ADME, cell-based, Canis lupus familiaris. The note with it: dog, MDCK-MDR1.
Data set [2] can be described thus: Apparent permeability across basolateral to apical side in MDCKII-MDR1 cells at 10 uM by LC-MS/MS analysis. In kind it is ADME, cell-based, Canis lupus familiaris. The note with it: dog, MDCK-MDR1.
Data set [3] is described as follows: Efflux ratio of apparent permeability from basolateral to apical side over apical to basolateral side in […] cells at 10 uM by LC-MS/MS analysis. The class given is ADME, cell-based, Canis lupus familiaris. The settings on record: dog, MDCK-MDR1.
Another data set concerns the target Alpha-synuclein (Homo sapiens, UniProt P37840). In words: Inhibition of recombinant human Alpha-synuclein aggregation expressed in Escherichia coli incubated for 72 hrs by ThT fluorescence assay.

For the compound `COc1cc(/C=C/C(=O)c2cc(O)cc(O)c2)c(OC)cc1/C=C/C(=O)c1cc(O)cc(O)c1`, the Papp A→B (as a rule, the apparent permeability from the apical to the basolateral side of a cell layer) at 10 µM in data set [1] turned out to be 77.1 nm/s. In addition, the Papp B→A – broadly, how fast a substance crosses the layer from the basolateral side – at 10 µM in data set [2] came to 932 nm/s.

For the compound `O=C(/C=C/c1ccc(/C=C/C(=O)c2ccc(O)c(F)c2)cc1)c1ccc(O)c(F)c1`, the Papp A→B at 10 µM in data set [1] was found to be 114 nm/s. In data set [2], the Papp B→A at 10 µM is 956 nm/s.

On to `CC(C)NCC(O)COc1cccc2ccccc12` (configuration not stated) [PROPRANOLOL], for which the efflux ratio (as a rule, the permeability from basolateral to apical divided by that in the opposite direction, in the common usage) at 10 µM in data set [3] is 2.66. For the same compound, in data set [1], the Papp A→B at 10 µM is 365 nm/s. In data set [2], the Papp B→A at 10 µM stood at 970 nm/s.

Regarding `COc1cc(/C=C/C(=O)c2ccc(O)c(O)c2)c(OC)cc1/C=C/C(=O)c1ccc(O)c(O)c1`, the Papp A→B at 10 µM in data set [1] was found to be 135 nm/s. Moreover, in data set [2], the apparent permeability from basolateral to apical (Papp B→A) at 10 µM turned out to be 960 nm/s.

For `O=C(/C=C/c1ccc(/C=C/C(=O)c2ccc(O)c(O)c2)cc1)c1ccc(O)c(O)c1`, the Papp A→B at 10 µM in data set [1] amounted to 162 nm/s. Also, the Papp B→A at 10 µM in data set [2] was 747 nm/s.

Regarding `O=C(O[C@@H]1Cc2c(O)cc(O)cc2O[C@H]1c1cc(O)c(O)c(O)c1)c1cc(O)c(O)c(O)c1` [GALLOCATECHIN GALLATE], the 50% inhibitory concentration (IC50) – broadly, the concentration at which inhibition is half-maximal – on Alpha-synuclein worked out at 1.06 µM.
